US20050282818A1, “Ubiquitin ligase inhibitors” (Rigel Pharmaceuticals, Inc., priority 2004, published 2005)
Where two headings read alike, the source gives them in different places.

Experiments:
[1] = target: T1, TRAF6/Uev1A/Ubc13 (Homo sapiens, UniProt Q9Y4K3); experiment: TRAF6/Uev1A/Ubc13 plate-based ubiquitin ligase assay; assay type: biochemical
T1 sequence (Q9Y4K3 1-522): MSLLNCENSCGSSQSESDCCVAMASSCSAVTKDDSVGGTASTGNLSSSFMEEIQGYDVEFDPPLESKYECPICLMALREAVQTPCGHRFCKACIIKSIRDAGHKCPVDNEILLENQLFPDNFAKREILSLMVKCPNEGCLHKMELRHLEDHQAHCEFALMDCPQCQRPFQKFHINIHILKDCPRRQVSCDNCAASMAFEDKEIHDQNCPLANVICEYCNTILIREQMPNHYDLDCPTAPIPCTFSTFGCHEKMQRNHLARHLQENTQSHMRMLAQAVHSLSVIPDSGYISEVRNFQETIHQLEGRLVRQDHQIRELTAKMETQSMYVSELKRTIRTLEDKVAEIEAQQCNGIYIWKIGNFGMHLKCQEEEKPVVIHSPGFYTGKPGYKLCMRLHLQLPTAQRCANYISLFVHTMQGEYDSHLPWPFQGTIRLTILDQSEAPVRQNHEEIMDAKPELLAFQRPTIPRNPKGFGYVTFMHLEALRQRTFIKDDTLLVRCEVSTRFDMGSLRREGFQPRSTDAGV
Procedure, shortened: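 Ligase activity was read as luminescence from anti-Flag/HRP detection of Flag-ubiquitin bound to casein-blocked Ni-plates alongside His-ubiquitin after a 1 h room-temperature reaction. Buffer: 62.5 mM Tris pH 7.5, 6.25 mM MgCl2, 1.0 mM DTT, 2 μM ATP; E1, Uev1a/Ubc13 and TRAF6 added last to start. IC50s derived across compound concentrations.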

[2] = system: A549 cells; experiment: Cell proliferation PAD assay, A549; assay type: cell-based; settings: Homo sapiens, 48 hours
Procedure, shortened: (§1)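 Cells were seeded at 2,000 per well and dosed 24 h later, in duplicate, with 6.3-fold dilution series from a 10 mM master stock diluted 500-fold into wells. After 48 h at 37 °C, 5% CO2, cells were formamide-fixed, DAPI-stained and imaged to count live, apoptotic and dead cells.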

[3] = system: H1299 cells; experiment: Cell proliferation PAD assay, H1299; assay type: cell-based; settings: Homo sapiens, 48 hours
Procedure, shortened: as §1

[4] = NCI-H1299, 3pt, read-out: H1299 3pt
[5] = NCI-H1299, 6pt, read-out: H1299 6pt

SMILES	IC50 [1] [µM]	IC50 ([2]; 3pt, read-out: A549 3pt) [µM]	IC50 ([2]; 6pt, read-out: A549 6pt) [µM]	IC50 [3, 4] [µM]	IC50 [3, 5] [µM]
O=S(=O)(c1ccc(Cl)c2nonc12)N1CCN(c2ncccn2)CC1 [compound 184, 4-chloro-7-[(4-pyrimidin-2-ylpiperazin-1-yl)sulfonyl]-2,1,3-benzoxadiazole]	≥ 20	1 to 20	≥ 20	1 to 20	≥ 20
O=S(=O)(c1ccc(Cl)c2nonc12)N1CCN(c2ccccc2)CC1 [compound 186, 4-chloro-7-[(4-phenylpiperazin-1-yl)sulfonyl]-2,1,3-benzoxadiazole]	≥ 20	1 to 20	1 to 20	1 to 20	< 1
O=c1[nH]c2ccccc2n1C1CCN(S(=O)(=O)c2ccc(Cl)c3nonc23)CC1 [compound 188, 1-{1-[(7-chloro-2,1,3-benzoxadiazol-4-yl)sulfonyl]piperidin-4-yl}-1,3-dihydro-2H-benzimidazol-2-one]	≥ 20	1 to 20	≥ 20	1 to 20	< 1
CC1CC(C)CN(S(=O)(=O)c2ccc(Cl)c3nonc23)C1 (centres unmarked) [compound 192, 4-chloro-7-[(3,5-dimethylpiperidin-1-yl)sulfonyl]-2,1,3-benzoxadiazole]	≥ 20	1 to 20	≥ 20	1 to 20	≥ 20
N#CC1(c2ccccc2)CCN(S(=O)(=O)c2ccc(O)c3nonc23)CC1 [compound 199, 1-[(7-hydroxy-2,1,3-benzoxadiazol-4-yl)sulfonyl]-4-phenylpiperidine-4-carbonitrile]	≥ 20	1 to 20	≥ 20	1 to 20	≥ 20
O=S(=O)(c1c(Cl)ccc2nonc12)N1CCN(c2cnccn2)CC1 [compound 200, 5-chloro-4-[(4-pyrazin-2-ylpiperazin-1-yl)sulfonyl]-2,1,3-benzoxadiazole]	≥ 20	1 to 20	≥ 20	1 to 20	< 1
CC(=O)N1CCN(S(=O)(=O)c2c(Cl)ccc3nonc23)CC1 [compound 201, 4-[(4-acetylpiperazin-1-yl)sulfonyl]-5-chloro-2,1,3-benzoxadiazole]	≥ 20	1 to 20	≥ 20	1 to 20	< 1
Cc1cccc(N2CCN(S(=O)(=O)c3c(Cl)ccc4nonc34)CC2)n1 [compound 202, 5-chloro-4-{[4-(6-methylpyridin-2-yl)piperazin-1-yl]sulfonyl}-2,1,3-benzoxadiazole]	≥ 20	1 to 20	< 1	1 to 20	< 1
N#Cc1ccc(N2CCN(S(=O)(=O)c3c(Cl)ccc4nonc34)CC2)nc1 [compound 209, 6-{4-[(5-chloro-2,1,3-benzoxadiazol-4-yl)sulfonyl]piperazin-1-yl}nicotinonitrile]	1 to 20	1 to 20	< 1	1 to 20	< 1
CC(=O)N1CCN(S(=O)(=O)c2c(Sc3cccc4cccnc34)ccc3nonc23)CC1 [compound 214, 8-({4-[(4-acetylpiperazin-1-yl)sulfonyl]-2,1,3-benzoxadiazol-5-yl}thio)quinoline]	1 to 20	1 to 20	–	1 to 20	–
O=S(=O)(Nc1ccc2cn[nH]c2c1)c1ccc(Cl)c2nonc12 [compound 220, 7-chloro-N-1 H-indazol-6-yl-2,1,3-benzoxadiazole-4-sulfonamide]	≥ 20	1 to 20	1 to 20	1 to 20	1 to 20

Further lines, results first:

IC50 [1] [µM]	IC50 ([2]; 3pt, read-out: A549 3pt) [µM]	IC50 ([2]; 6pt, read-out: A549 6pt) [µM]	IC50 [3, 4] [µM]	IC50 [3, 5] [µM]	SMILES
1 to 20	–	1 to 20	–	1 to 20	O=S(=O)(c1ccc(Sc2ccc(O)cc2)c2nonc12)N1CCC(Oc2ncccn2)CC1 [compound 226, 4-[(7-{[4-(pyrimidin-2-yloxy)piperidin-1-yl]sulfonyl}-2,1,3-benzaxadiazol-4-yl)thio]phenol]
1 to 20	–	≥ 20	–	< 1	CC1(C)CCN(S(=O)(=O)c2c(Cl)ccc3nonc23)CC1 [compound 245, 5-chloro-4-[(4,4-dimethylpiperidin-1-yl)sulfonyl]-2,1,3-benzoxadiazole]
≥ 20	1 to 20	–	1 to 20	–	O=S(=O)(Nc1ccc(F)c(F)c1)c1ccc(Cl)c2nonc12 [compound 262, 7-chloro-N-(3,4-difluorophenyl)-2,1,3-benzoxadiazole-4-sulfonamide]
≥ 20	1 to 20	–	1 to 20	–	O=S(=O)(Nc1cccc(F)c1)c1ccc(Cl)c2nonc12 [compound 263, 7-chloro-N-(3-fluorophenyl)-2,1,3-benzoxadiazole-4-sulfonamide]
≥ 20	≥ 20	≥ 20	≥ 20	–	Cc1cc(C)cc(-c2cccc3nonc23)c1 [compound 285, 4-(3,5-Dimethylphenyl)-2,1,3-benzoxadiazole]
≥ 20	1 to 20	≥ 20	1 to 20	< 1	Cc1cc(C)cc(-c2ccc([N+](=O)[O-])c3nonc23)c1 [compound 286, 4-(3,5-Dimethylphenyl)-7-nitro-2,1,3-benzoxadiazole]
1 to 20	–	1 to 20	–	1 to 20	O=[N+]([O-])c1ccc(-c2cccc(C(F)(F)F)c2)c2nonc12 [compound 309, 4-Nitro-7-[3-(trifluoromethyl)phenyl]-2,1,3-benzoxadiazole]
≥ 20	–	< 1	–	< 1	Cc1cccc(-c2ccc([N+](=O)[O-])c3nonc23)c1 [compound 310, 4-(3-Methylphenyl)-7-nitro-2,1,3-benzoxadiazole]
1 to 20	–	< 1	–	< 1	CC(C)(C)c1ccc(-c2ccc([N+](=O)[O-])c3nonc23)cc1 [compound 313, 4-(4-Tert-butylphenyl)-7-nitro-2,1,3-benzoxadiazole]
1 to 20	–	1 to 20	–	1 to 20	COc1cccc(-c2ccc([N+](=O)[O-])c3nonc23)c1F [compound 314, 4-(2-Fluoro-3-methoxyphenyl)-7-nitro-2,1,3-benzoxadiazole]
≥ 20	–	≥ 20	–	≥ 20	O=S(=O)(Nc1ccc2cn[nH]c2c1)c1c(O)ccc2nonc12 [compound 339, 5-hydroxy-N-(1H-indazol-6-yl)2,1,3-benzoxadiazole-4-sulfonamide]
≥ 20	–	1 to 20	–	1 to 20	O=S(=O)(c1c(N2CCC(Oc3ccccc3C(F)(F)F)CC2)ccc2nonc12)N1CCC(Oc2ccccc2C(F)(F)F)CC1 [compound 340, 5-[4-(2-{trifluoromethyl}phenoxy)piperidin-1-yl]-4-{[4-(2-{trifluoromethyl}phenoxy)piperidin-1-yl]sulfonyl}-2,1,3-benzoxadiazole]
≥ 20	–	1 to 20	–	1 to 20	COc1cc(NS(=O)(=O)c2ccc(Cl)c3nonc23)c(OC)cc1Cl [compound 341, 7-chloro-N-(4-chloro-2,5-dimethoxyphenyl)-2,1,3-benzoxadiazole-4-sulfonamide]
1 to 20	–	1 to 20	–	< 1	COc1cc(Nc2ccc(S(=O)(=O)Nc3cc(OC)c(Cl)cc3OC)c3nonc23)c(OC)cc1Cl [compound 342, N-(4-chloro-2,5-dimethoxyphenyl)-7-([4-chloro-2,5-dimethoxyphenyl]amino)-2,1,3-benzoxadiazole-4-sulfonamide]
≥ 20	–	1 to 20	–	1 to 20	COc1cc(NS(=O)(=O)c2c(Cl)ccc3nonc23)c(OC)cc1Cl [compound 343, 5-chloro-N-(4-chloro-2,5-dimethoxyphenyl)-2,1,3-benzoxadiazole-4-sulfonamide]
≥ 20	–	≥ 20	–	≥ 20	COc1cc(Nc2ccc3nonc3c2S(=O)(=O)Nc2cc(OC)c(Cl)cc2OC)c(OC)cc1Cl [compound 344, N-(4-chloro-2,5-dimethoxyphenyl)-5-([4-chloro-2,5-dimethoxyphenyl]amino)-2,1,3-benzoxadiazole-4-sulfonamide]
